The results in this text go back to patent US5929124A, “Antimicrobial diterpenes” (priority 1997, dated 1999).

The subject of one series is S. aureus. Kind of series: Inhibition of Staphylococcus aureus culture. It is filed as cell-based. The note with it: 24 hours at 35° C. How it is done:
(§1) Formulae (i) was isolated as described in Example 1. Plant material was collected in Zimbabwe. A voucher specimen is deposited at the Institute of Pharmacognosy and Phytochemistry, University of Lausanne, Lausanne, Switzerland. Antimicrobial assays are performed by a modification of the broth microdilution susceptibility assay using the tetrazolium salt XTT (Examples 2-6, see summary of results in Table 1 below).
Strains of Staphylococcus aureus were subcultured from cryopreserved stocks onto sheep blood agar plates (methicillin-sensitive reference strain ATCC #29213. Methicillin-resistant (MRSA) clinical isolate was obtained from Dr. Gary Doern, Director of Clinical Microbiology, University of Massachusetts Medical Center, Worcester, Mass.). Bacteria were suspended in Mueller Hinton broth and inoculated (5×10^4 CFU/well) into 96-well plates containing test compounds in a final volume of 100 μL/well. After 24 hours at 35° C., plates were shaken for 1 minute and turbidity was read manually at 650 nm using a Emax microplate reader (Molecular Devices, Sunnyvale, Calif. The MIC values of vancomycin and gentamicin in this screening assay are determined to be approximately 1 μg/mL and 0.6 μg/mL, respectively, well within the reported ranges (National Committee on Clinical Laboratory Standards Vol. 14, No. 16, 1994, Table 3).

The next series can be described thus: Vero cell proliferation. It is filed as cell-based. The note with it: monkey, vero cells; read-out: IC50 (Vero cell proliferation). An excerpt:
Formula (ii) compounds are those compounds of formula (I) wherein R13 is --O--bonded to R14 and R14 is --CHORa --, Ra being hydrogen, C1-4 alkyl, or formula (a). Formula (ii) compounds may be obtained according to Example 7. […] In general, inhibition of a microbial infection means inhibiting microbial growth, relative to an untreated control, by at least 30%, and preferably by 50% or 75%. Cytotoxicity assays utilized the same dye as a marker of cell viability.

A further series deals with C. albicans. Kind of series: Inhibition of Candida spp. culture (broth microdilution, XTT). Type of series: cell-based, Candida albicans (strain ATCC #90028). Conditions: for minimum inhibitory concentration (MIC) for known antifungal agents: assay validation, result in words. As for the experimental part:
as §1
(§2) Candida albicans (strain ATCC #90028), Candida krusei (strain ATCC #90030), and Torulopsis (Candida) glabrata (strain ATCC #6258) were subcultured from cryopreserved stocks onto sabourand dextrose agar plates. Blastoconidia were suspended into RPMI-MOPS (media) and inoculated (500 CFW/well) into 96-well plates containing test compounds in a final volume of 100 μL/well. After 22 hours at 35° C., 25 μL of XTT (2,3-bis(2-methoxy-4-nitro-5-sulfophenyl)-5-[(phenylamino)carbonyl]-2H-tetrazolium hydroxide), (100 μg/mL) with PMS (phenazine methyl sulfate, 5 μM) were added to each well, followed by 2 hours of shaking. Growth was assessed spectrophotometrically by measuring the appearance of soluble formazan stain at 450 nm using an Emax microplate reader.
(In general: In broth dilution the organism is exposed to a series of concentrations in liquid medium.)

The test system of the next series is A. fumigatus. The series is described as follows: Inhibition of Aspergillus spp. culture (broth microdilution, XTT). It is filed as cell-based, Aspergillus fumigatus (strain ATCC#8001). Conditions: 48 hours at 37° C. As for the experimental part: as §1
Aspergillus fumigatus (strain ATCC#8001) was subcultured from a refrigerated potato dextrose agar slant (immersed in mineral oil) onto a fresh potato dextrose agar slant. After 72 hours of incubation at 37° C., the slants were filled with 7 mL sterile, cold, distilled water and put on ice for 2 hours. After disrupting the tissue, spores were filtered through sterile gauze using a 30 cc syringe. The resulting mixture was centrifuged for 10 minutes at 2,000 rpm. The supernatant was discarded and the pellet was resuspended in 5 mL sterile, distilled water. […] Growth was assessed spectrophotometrically by measuring the appearance of soluble formazan stain at 450/650 nm using an Emax micro plate reader. Validation of the assay was confirmed by determination of the A. fumigatus minimum inhibitory concentration (MIC) for amphotericin B. MICs were also scored visually.

The test system of the next series is C. krusei. The series is described as follows: Inhibition of Candida spp. culture (broth microdilution, XTT). Type of series: cell-based, Candida krusei (strain ATCC #90030). The note with it: Pichia kudriavzevii, 22 hours at 35° C. As for the experimental part: as §1, §2
The next series relates to T. glabrata. Described as above. It is filed as cell-based, Torulopsis (Candida) glabrata (strain ATCC #6258). Conditions: Nakaseomyces glabratus, 22 hours at 35° C. How it is done:
as §1, §2

The test system of the next series is Trichophyton rubrum. The series is described as follows: Inhibition of dermatophytes. Type of series: cell-based. The note with it: T. rubrum, 96 hours, 10 isolates. As for the experimental part: (§3) The in vitro activity of formula (I) against the dermatophytes Trichophyton rubrum, Trichophyton mentagrophytes, and Epidermophyton floccosum was measured. The data were collected after incubating for 96 hours.

The subject of series [1] is Trichophyton mentagrophytes. The series is described as follows: Inhibition of dermatophytes. Type of series: cell-based. Conditions: T. mentagrophytes, 96 hours, 13 isolates. How it is done:
as §3

A further series has as its system Epidermophyton floccosum. The series is described as follows: Inhibition of dermatophytes. It is filed as cell-based. Conditions: E. floccosum, 96 hours, 1 isolate. As for the experimental part:
as §3

In series [2] the test system is Candida albicans strain # 64. Kind of series: In vivo efficacy against fluconazole-sensitive candidiasis in mice. Details: species or system ICR mice infected with Candida albicans. As for the experimental part: Immunocompetent mice (ICR, Sprague-Dawley, Indianapolis, IN) were infected with a pathogenic strain (# 64) of Candida albicans which is sensitive to fluconazole. After 24 hours, dissemination of infection was shown by organ colony counts (kidney, spleen, and liver) greater than 10^5 CFU. Treatment began 24 hours after infection with the indicated dosage once a day for 10 days. One group received 20 mg/kg of the compound administered via oral gavage in 0.1 mL. The test compound was formulated in 40% polyethyleneglycol (MW 400). Another group received 40 mg/kg of th compound, administered as above. A third group received polyethylene glycol, and the last group received fluconazole dosed orally at 40 mg/kg twice a day.
After 30 days the percent survival in the group treated with fluconazole and the group treated with test compound (40 mg per kg body weight, twice a day) was measured. In addition, the organ fungal load was measured at days 1, 10, and 30.

Where [3] appears, read: Staphylococcus aureus, read-out: MIC.
Setting [4] is: Candida albicans, 22 hours at 35° C.

Converted amounts (≈) assume the structure as drawn. Like-named read-outs stand apart in the source and are kept apart here.

Broadly, the MIC is the lowest concentration found to suppress growth. What is called IC50 is the midpoint of a concentration-inhibition curve. Low readings indicate greater potency, high ones weaker potency. As to `CC1=C(CCO)C(=O)C(O)=C2C1=CC(=O)[C@@H]1C(C)(C)CCC[C@@]21C` (relative stereo) [Formula (i), (4bR*,8aR*)-4b,5,6,7,8,8a-hexahydro-4-hydroxy-4b,8,8,1-tetramethyl-2-(2-hydroxy-ethyl) -3,9-phenanthrenedione], the minimum inhibitory concentration (MIC) with S. aureus (setting [3]) is 1.56 µg/mL; against C. albicans (setting [4]), 0.78 µg/mL; against A. fumigatus it was 6.25 µg/mL; in the series with C. krusei, 1.56 µg/mL; with T. glabrata it was 1.65 µg/mL; with Trichophyton rubrum (read-out: MIC range), 2 to 8 µg/mL. Also, the MIC is 5 µg/mL in the series on Trichophyton rubrum (read-out: average MIC), 0.5 to 8 µg/mL in series [1] (read-out: MIC range), 2.7 µg/mL in series [1] (read-out: average MIC) and 4 µg/mL in the series on Epidermophyton floccosum. Moreover, the CC50 in the series “Vero cell proliferation” came to 12.7 µg/mL. In addition, the IC50 with C. albicans (setting [4]) is 0.12 µg/mL; with A. fumigatus it was 6.49 µg/mL; in the series with C. krusei, 0.55 µg/mL; with T. glabrata it was 0.44 µg/mL.

For the compound `CC1=C(CCO)C(=O)C(O)=C2C1=CC(=O)[C@H]1C(C)(C)CCC[C@]21C` (relative stereo) [test compound], in series [2] (20 and 40 mg/kg oral gavage), the “dose response of the effect” value was “dose-responsive”. Also, in [2] (after 10 days, either concentration of the test compound, vs mice treated with fluconazole), the “fungal organ burdens in the kidney, liver, and spleen” value is given as “less than or equal to one half the burdens in the same organs of mice treated with fluconazole”. The compound also yielded a median survival in series [2] (oral gavage once a day for 10 days, vehicle control 7 days, p=0.0018 log rank test) of 17.5 days.

For the compound `Nc1nc(=O)[nH]cc1F` [5-flucytosine], the “minimum inhibitory concentration (MIC) for known antifungal agents” value (from here on “minimum inhibitory concentration (MIC)”) in the series with C. albicans was “within reported ranges”.

In the case of `C[C@@H]1[C@H](O)[C@@H](C)/C=C/C=C/C=C/C=C/C=C/C=C/C=C/[C@H](O[C@@H]2O[C@H](C)[C@@H](O)[C@H](N)[C@@H]2O)C[C@@H]2O[C@](O)(C[C@@H](O)C[C@@H](O)[C@H](O)CC[C@@H](O)C[C@@H](O)CC(=O)O[C@H]1C)C[C@H](O)[C@H]2C(=O)O` [amphotericin B], the “minimum inhibitory concentration (MIC)” value in the series on C. albicans is reported as “within reported ranges”.

As for `OC(Cn1cncn1)(Cn1cncn1)c1ccc(F)cc1F` [fluconazole], the “minimum inhibitory concentration (MIC)” value with C. albicans is reported as “within reported ranges”.

As to `C[C@@H]([C@H](N)C(=O)N[C@H](C(=O)O)[C@H]1O[C@@H](n2ccc(=O)[nH]c2=O)[C@H](O)[C@@H]1O)[C@H](O)c1ccc(O)cn1` [nikkomycin Z], the “minimum inhibitory concentration (MIC)” value in the series on C. albicans was “within reported ranges”.

With `NC(=O)OC[C@H](O)[C@@H](O)[C@H](N)C(=O)N[C@H](C(=O)O)[C@H]1O[C@@H](n2cc(C(=O)O)c(=O)[nH]c2=O)[C@H](O)[C@@H]1O` [polyoxin D], in the series on C. albicans, the “minimum inhibitory concentration (MIC)” value is recorded as “within reported ranges”.

Turning to `CN[C@H](CC(C)C)C(=O)N[C@H]1C(=O)N[C@@H](CC(N)=O)C(=O)N[C@H]2C(=O)N[C@H]3C(=O)N[C@H](C(=O)N[C@H](C(=O)O)c4cc(O)cc(O)c4-c4cc3ccc4O)[C@H](O)c3ccc(c(Cl)c3)Oc3cc2cc(c3O[C@@H]2O[C@H](CO)[C@@H](O)[C@H](O)[C@H]2O[C@H]2C[C@](C)(N)[C@H](O)[C@H](C)O2)Oc2ccc(cc2Cl)[C@H]1O` [vancomycin], the MIC with S. aureus (setting [3]) was roughly 1 µg/mL (≈ 0.69 µM).

For the compound gentamicin, the MIC in the series with S. aureus was roughly 0.6 µg/mL.
